The subject of the test is anti-sirolimus antibody. Kind of test: Sirolimus ACMIA immunoassay: metabolite cross-reactivity in whole blood. The format is binding. An excerpt:
Testing was done using the DIMENSION® RxL analyzer, available from Dade Behring Inc., Newark Del. The instrument was employed using ACMIA immunoassay technology. The ACMIA assay method is disclosed in U.S. Pat. Nos. 7,186,518, 5,147,529, 5,128,103, 5,158,871, 4,661,408, 5,151,348, 5,302,532, 5,422,284, 5,447,870, 5,434,051, the disclosures of which are incorporated herein in their entirety). In the embodiment of the ACMIA method used herein and discussed in more detail below, competition between sirolimus analog on chrome particles and sirolimus (SIRO) in patient samples for antibody for sirolimus conjugated to an enzyme (conjugate) was utilized to determine the amount of sirolimus in the patient samples. Conjugate that binds to the sirolimus analog on chrome particles was removed by magnetic separation. The enzymatic activity from conjugate remaining in the supernatant is measured and is directly proportional to the amount of sirolimus in the patient sample. In the ACMIA assay format employed, the enzymatic activity observed when testing a sample containing no sirolimus was indicative of the amount of enzymatic activity that was not bound to active antibody (i.e., cannot bind sirolimus on chrome particles). The enzymatic activity observed when no chrome particle is present is indicative of the total amount of enzymatic activity in the conjugate. These values can be used to estimate the percent of enzymatic activity bound to active antibody.
Monoclonal anti-sirolimus antibody (Wyeth Pharmaceuticals, Cambridge Mass.) was conjugated to β-galactosidase using a standard heterobifunctional SMCC (succinimidyl trans-4-(N-maleimidylmethyl)cyclohexane-1-carboxylate) linker according to known techniques. The antibody conjugate solution contained approximately 7.5 μg/mL anti-sirolimus antibody-β-galactosidase conjugate, 30 mg/mL protease free bovine serum albumin, 0.126 mg/mL MgCl2, 0.03 mL/mL of Ethylene glycol, 35.14 mg/mL PIPES 1.5 sodium salt, 50 mg/mL NaCl and beta-gal mutein (inactivated beta-galactosidase), pH 6.5.
Sirolimus chrome particles (immunoassay solid phase) were prepared by conjugating sirolimus-C26- or -C32-CMO conjugate to DA10-Dexal-Chromium Dioxide particles using N-hydroxysuccinimide (NHS) ester and 1-ethyl-3-(3-dimethylaminopropyl)carbodiimide (EDAC) chemistry. See, for example, U.S. Pat. No. 6,231,982, the relevant disclosure of which is incorporated herein by reference. The sirolimus chrome particles are then made into sirolimus chrome particle tablets. Each sirolimus tablet contains approximately 2 mg sirolimus chrome particle slurry, 30.4 mg trehalose dihydrate and 3.6 mg CARBOWAX® 100 μm.
The principle and operation of the ACMIA assay for sirolimus were as follows: pretreatment reagent without FKE or with FKE containing organic solvent as the selective solubility agent was added to a reaction vessel on the DIMENSION® RxL analyzer. Next, 18 μL of whole blood containing sirolimus or its metabolites was added. The whole blood was sampled from a standard cup by first mixing the blood with the ultrasonic sample probe. The mixing of whole blood sample with the pretreatment solution ensured the hemolysis of the whole blood and the displacement of the protein bound sirolimus molecules from their binding sites when the tacrolimus carbamate molecules were present. Anti-sirolimus antibody-β-galactosidase conjugate (50 μL) was added next and was allowed to react with sirolimus in the sample. The chrome particles with immobilized sirolimus-CMO-DA10-Dexal were added (50 μL) and were allowed to bind the un-bound conjugate. […] The sirolimus-bound conjugate was detected by transferring the supernatant from the reaction vessel to a photometric cuvette and measuring the enzymatic rate of the conjugate in the presence of chlorophenol red-β-D-galactopyranoside (CPRG). The rate was measured bichromatically at 577 and 700 nm. […]

[1] abbreviates: PT with 15 μg/mL FKE & 15% DMSO.

As for 11-hydroxy sirolimus, the sirolimus metabolite cross-reactivity stood at 35% under setting [1]; 78% (PT with 15 μg/mL FKE, no DMSO); 315% (PT with Neither FKE Nor DMSO).
The matching figures for “11-hydroxy sirolimus [11-hydroxy sirolimus (isomer of the above)]”: 9%, 34% and 114%.
“27,39-O-didesmethyl (or 32,41-O-didesmethyl) sirolimus [27,39 Didesmethyl sirolimus]”: the “% Cross-Reactivity” value came out at 180% (Control: no organic solvent in pretreatment reagent, recovery as percent of parent sirolimus); 100% (DMSO 10% in pretreatment reagent, 2.3% in reaction mixture, 15 μg/mL FK506 ester); 88% (DMSO 15% in pretreatment reagent, 3.4% in reaction mixture, 15 μg/mL FK506 ester); 92% (Methoxypropanol 10% in pretreatment reagent, 2.3% in reaction mixture, 15 μg/mL FK506 ester). The sirolimus metabolite cross-reactivity is listed as 88% under setting [1]; 165% (PT with 15 μg/mL FKE, no DMSO); 569% (PT with Neither FKE Nor DMSO).
For 32-O-desmethyl sirolimus, the sirolimus metabolite cross-reactivity is given as −3% under setting [1]; 8% (PT with 15 μg/mL FKE, no DMSO); 34% (PT with Neither FKE Nor DMSO).
The matching figures for 41-O-demethyl sirolimus: 40%, 39% and 48%.
The matching figures for `CO[C@@H]1C[C@H](C[C@@H](C)[C@@H]2CC(=O)[C@H](C)/C=C(\C)[C@@H](O)[C@@H](OC)C(=O)[C@H](C)C[C@H](C)/C=C/C=C/C=C(\C)[C@@H](O)C[C@@H]3CC[C@@H](C)[C@@](O)(O3)C(=O)C(=O)N3CCCC[C@H]3C(=O)O2)CC[C@H]1O` [7-O-demethyl sirolimus]: −3%, 7% and 6%.
On the same counts, the results for (N-oxide)-hydroxy sirolimus are 13%, 49% and 152%.

The record behind these values is US8071317B2, “Methods for detection of hydrophobic drugs” (Siemens Healthcare Diagnostics Inc., priority 2007, dated 2011).
